Laboratory results published in patent US20040248764A1 (priority 2001, published 2004).
Values after ≈ are worked out from the molar mass of the structure shown. Values joined by “and” are separate entries in the source; they are usually repeats but may differ in a detail not shown here. Equal entries are not always repeated. Where two headings read alike, the source gives them in different places.

How the values were obtained:
S. apis = type: cell-based
[1] = test system: Xylella fastidiosa strains; assay: microbe, parasite or virus in culture; type: cell-based; settings: for MIC: Xylella fastidiosa
grape = settings: in vivo
E. coli = settings: cited from earlier work
Xylella = type: cell-based
[2] = test system: aster yellow phytoplasma (AYP); type: in vivo, Catharanthus roseus
Spiroplasma citri = type: cell-based
S. floricola = type: cell-based
S. melliferum = type: cell-based
[3] = test system: X. fastidiosa-infected grapevines; settings: in vivo
[4] = test system: X. fastidiosa-infected grapevines; settings: in vivo; remark: listed apart in the source
Xylella fastidiosa = type: in vivo, grapevines
healthy vines = settings: in vivo
Mycoplasma iowae = type: cell-based
[5] = test system: Xylella sp. strains Shiraz, Melody, Coyaga; type: cell-based; settings: 10^8 CFU

CC(C)=CCCC(C)=CC=O [citral, 3,7-dimethyl-2,6-octadien-1-al]
color changing units (S. apis): 10^9 CCUs and 10^7 CCUs and 10^3 CCUs | effect on cells of X. fastidiosa strains ([1]; 250 ppm, 24-hr. treatment): killed cells of all 11 strains | MIC ([1]; 4 grape strains, 2 sycamore strains, and 1 peach strain): 125 µg/mL (≈ 821 µM) | MIC ([1]; 24 h, strain 2#6, Plum leaf scald): 62.5 µg/mL (≈ 411 µM) | MIC ([1]; 24 h, strain 3SV, Pierce's disease of grapevine): 125 µg/mL (≈ 821 µM) | MIC ([1]; 24 h, strain 4#5, Phony disease of peach): 125 µg/mL (≈ 821 µM) | MIC ([1]; 24 h, strain 4BD2, Pecan leaf scorch): 62.5 µg/mL (≈ 411 µM) | MIC ([1]; 24 h, strain #6, Oleander leaf scorch): 62.5 µg/mL (≈ 411 µM) | MIC ([1]; 24 h, strain Cayuga, Pierce's disease of grapevine): 125 µg/mL (≈ 821 µM) | MIC ([1]; 24 h, strain Melody, Pierce's disease of grapevine): 125 µg/mL (≈ 821 µM) | MIC ([1]; 24 h, strain SLS#61, Sycamore leaf scorch): 125 µg/mL (≈ 821 µM) | MIC ([1]; 24 h, strain SLS-DC, Sycamore leaf scorch): 125 µg/mL (≈ 821 µM) | MIC ([1]; 24 h, strain Shiraz, Pierce's disease of grapevine): 125 µg/mL (≈ 821 µM) | MIC ([1]; 24 h, strain Yugo, Pierce's disease of grapevine): 62.5 µg/mL (≈ 411 µM) | MIC ([1]; strains from grape, plum, pecan, and oleander): 62.5 µg/mL (≈ 411 µM) | concentration at which phytotoxic (grape; grape): approximately 5000 ppm | phytotoxicity in grape (grape): phytotoxicity | citral in growth media that reduced the concentration of E. coli (E. coli): more than 0.01% | citral in growth media with bactericidal effect (E. coli): 0.08% | effect on Xylella (Xylella; 62.5 ppm citral): No complete kill but get stasis | kill of Xylella (Xylella; 125 ppm citral): 100% kill | kill of Xylella (Xylella; 500 ppm citral): 100% kill | AYP symptoms of treated plants ([2]; 500 ppm citral in water, 500 mL per plant Day 8 and Day 14, three plants, as of Day 108): remained symptomless | AYP symptoms of treated periwinkles ([2]; 500 ppm, 500 mL per plant Day 8 and Day 15, three plants, as of Day 174): remained symptomless | delay of symptom development ([2]; in vivo): 22 days | cells that survived the treatment (Spiroplasma citri): no cells | color changing units (S. floricola): 10^9 CCUs and 10^6 CCUs | cells that survived the treatment (S. melliferum): no cells | average branch length longer than control vines [3]: ~6 inches | average fruit yield [4]: about 4.8 lbs of fruit per vine | average increased yield [4]: about 6.25% | treated vines positive for bacteria (isolation and ELISA) (Xylella fastidiosa; other vines, treated Day 206 and Day 213, sampled on Day 252): Four out of 15 | treated vines positive for presence of bacteria (isolation and ELISA) (Xylella fastidiosa; treated Day 0 and Day 7, sampled on Day 252): Three out of 15 | weekly observations of treated healthy vines (healthy vines): no phytoplasma on any plants | color changing units (Mycoplasma iowae): 10^8 CCUs and 10^7 CCUs and 10^6 CCUs and 10^5 CCUs and 10^4 CCUs | kill of cells by the treatment (Mycoplasma iowae): not enough to kill | Xylella growth (CFU) ([5]; strain Coyaga, 3.25 ppm): TNTC | Xylella growth (CFU) ([5]; strain Coyaga, 62.5 ppm): TNTC | Xylella growth (CFU) ([5]; strain Melody, 3.25 ppm): TNTC | Xylella growth (CFU) ([5]; strain Melody, 62.5 ppm): TNTC | Xylella growth (CFU) ([5]; strain Shiraz, 3.25 ppm): TNTC | Xylella growth (CFU) ([5]; strain Shiraz, 62.5 ppm): TNTC**
